Test results reported in PubChem BioAssay (NCI).
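1) Cells in 96-well plates. 2) Compound, 48 h, 5 concentrations. 3) Linear interpolation between surrounding doses. 4) Unreached endpoint = highest concentration. GI50 = concentration required for 50% inhibition of growth. At the TGI there is no net growth.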

Legend:
Assay in all cases: NCI-60 cell line screen, 48 h
RXF 393 renal = test system: RXF 393 renal
HOP-62 NSCLC = test system: HOP-62 NSCLC
HOP-92 NSCLC = test system: HOP-92 NSCLC
SF-268 CNS = test system: SF-268 CNS
HCC-2998 colon = test system: HCC-2998 colon
MDA-MB-435 = test system: MDA-MB-435
UO-31 renal = test system: UO-31 renal
NCI/ADR-RES ovarian = test system: NCI/ADR-RES ovarian
SR leukemia = test system: SR leukemia
CCRF-CEM leukemia = test system: CCRF-CEM leukemia
SNB-75 CNS = test system: SNB-75 CNS
SK-MEL-2 melanoma = test system: SK-MEL-2 melanoma
KM12 colon = test system: KM12 colon
DU-145 prostate = test system: DU-145 prostate
SN12C renal = test system: SN12C renal
NCI-H23 lung = test system: NCI-H23 lung
NCI-H226 lung = test system: NCI-H226 lung
HL-60(TB) leukemia = test system: HL-60(TB) leukemia
UACC-257 melanoma = test system: UACC-257 melanoma
T-47D breast = test system: T-47D breast
MALME-3M melanoma = test system: MALME-3M melanoma
SW-620 colon = test system: SW-620 colon
M14 melanoma = test system: M14 melanoma
OVCAR-4 ovarian = test system: OVCAR-4 ovarian
OVCAR-8 ovarian = test system: OVCAR-8 ovarian
SF-539 CNS = test system: SF-539 CNS
NCI-H522 lung = test system: NCI-H522 lung
COLO 205 colon = test system: COLO 205 colon

## Cc1ccc(-c2nnc(SCc3ccc(O)c4ncccc34)o2)cc1
RXF 393 renal
  TGI: 32200 nM
HOP-62 NSCLC
  GI50: 1060 nM
  TGI: 3830 nM
HOP-92 NSCLC
  GI50: 435 nM
  TGI: 4080 nM
SF-268 CNS
  GI50: 503 nM
  TGI: > 100000 nM
HCC-2998 colon
  GI50: 933 nM
  TGI: > 100000 nM
MDA-MB-435
  GI50: 500 nM
  TGI: > 100000 nM
UO-31 renal
  GI50: 567 nM
  TGI: 3240 nM
NCI/ADR-RES ovarian
  GI50: 706 nM
  TGI: 7020 nM
SR leukemia
  GI50: 568 nM
  TGI: 42700 nM
CCRF-CEM leukemia
  GI50: 518 nM
  TGI: > 100000 nM
SNB-75 CNS
  GI50: 283 nM
  TGI: 3930 nM
SK-MEL-2 melanoma
  GI50: 2240 nM
  TGI: 39400 nM
KM12 colon
  GI50: 1910 nM
  TGI: > 100000 nM
DU-145 prostate
  GI50: 1460 nM
  TGI: > 100000 nM
SN12C renal
  GI50: 966 nM
  TGI: > 100000 nM
NCI-H23 lung
  GI50: 1470 nM
  TGI: 13000 nM
NCI-H226 lung
  GI50: 2420 nM
  TGI: > 100000 nM
HL-60(TB) leukemia
  GI50: 520 nM
  TGI: 10200 nM
UACC-257 melanoma
  GI50: 2330 nM
  TGI: 9300 nM
T-47D breast
  GI50: 1830 nM
  TGI: 7400 nM
MALME-3M melanoma
  GI50: 1960 nM
  TGI: 8230 nM
SW-620 colon
  GI50: 1060 nM
  TGI: > 100000 nM
M14 melanoma
  GI50: 816 nM
  TGI: 5490 nM
OVCAR-4 ovarian
  GI50: 2450 nM
  TGI: > 100000 nM
OVCAR-8 ovarian
  GI50: 850 nM
  TGI: > 100000 nM
SF-539 CNS
  GI50: 561 nM
  TGI: 5920 nM
NCI-H522 lung
  GI50: 2290 nM
  TGI: > 100000 nM
COLO 205 colon
  GI50: 8410 nM
  TGI: > 100000 nM
